Measured values: patent US8883789B2, “Piperazine derivatives and their use as positive allosteric modulators of mGluR5 receptors” (Boehringer Ingelheim International GmbH, priority 2011, dated 2014)

Molecular target: T1, human recombinant mGluR5 (Homo sapiens, UniProt P41594)
T1 construct: expressed in transfected cells; hygromycin and geneticin selection
Experiment: positive modulation of mGluR5, calcium based FLIPR assay
Settings: HEK 293 cell line expressing human recombinant mGluR5; Ca2+ peak height after glutamate at approximately 5% basal stimulation; nonlinear regression
Experimental: The positive modulation of mGluR5 is measured in a HEK 293 cell line expressing human recombinant mGluR5 and is detected with calcium based FLIPR assay. The cells are cultured with DMEM supplemented with 10% FCS, 2 μg/mL tetracycline, 100 μg/mL hygromycin and 500 μg/mL geneticin. The cell culture media is exchanged for tetracycline-free cell culture media 3-7 days before the assay. One day before the assay the cell culture medium is exchanged to DMEM without glutamine and phenol red and supplemented with 10% FCS, 100 μg/mL hygromycin and 500 μg/mL geneticin. On the assay day, the medium of the subconfluent cultures is removed and the cells are detached by addition of 2.5 ml EDTA (0.02%) per 175 cm2 culture flask for 1 minute. The cells are resuspend in Ringer solution (140 mM NaCl, 5 mM KCl, 2.5 mM CaCl2, 1.5 mM MgCl2, 5 mM Glucose, 10 mM Hepes; adjusted to pH 7.4 with NaOH), pooled and Ringer solution added to adjust the volume to 50 mL. The cell suspension is centrifuged for […] at 1500 U/min (425 g). The supernatant is removed and the cells washed a second time with 50 ml fresh Ringer solution and centrifuged again as before. The supernatant is again removed and the pellet resuspended in Ringer solution to 1,000,000 cells/ml (1×10^6 cells/mL). The cells are plated onto BD BioCoat Poly-D-Lysine 384 well plates (20.000 cells/well; 20 μl/well). The lid covered plates are then incubated until use at 37° C./10% CO2. For dye loading, 20 μl of Calcium-4 assay kit solution (prepared according to the manufacturer's description in Ringer solution) are added to the cells and the plates are incubated for 80 min 37° C. and then 10 min at room temperature.
Controls, Compound Dilution and Assay Execution:
Each assay plate contained wells with “high” and “low” controls:
Low controls 1% DMSO/ringer solution+basal glutamate activation (defined as 100% CTL).
High controls 10 μM CDPPB+basal glutamate activation (defined as 200% CTL).
Test compounds are dissolved and diluted in DMSO to 100-fold the desired concentrations. In a second step, the compounds are diluted in Ringer solution such that the compounds are 4-fold more concentrated than the desired final assay concentration. The final DMSO concentration was 1%.
20 μl of each compound solution are then transferred to the assay plate and the Ca2+ kinetic is measured to determine any intrinsic compound activity. After 5 min incubation in the FLIPR device, the second stimulation with 20 μl of glutamate in Ringer solution (glutamate concentration adjusted to approximately 5% basal stimulation of the maximal possible glutamate effect) is added and the kinetic Ca2+ response of the wells was measured for the modulation effect.
The peak height of the Ca release related fluorescence signal (9-66) is used for the EC50.
The EC50 of the modulation is calculated over a nonlinear regression with GraphPad Prism (Table 1).

T1 sequence (P41594 21-1212): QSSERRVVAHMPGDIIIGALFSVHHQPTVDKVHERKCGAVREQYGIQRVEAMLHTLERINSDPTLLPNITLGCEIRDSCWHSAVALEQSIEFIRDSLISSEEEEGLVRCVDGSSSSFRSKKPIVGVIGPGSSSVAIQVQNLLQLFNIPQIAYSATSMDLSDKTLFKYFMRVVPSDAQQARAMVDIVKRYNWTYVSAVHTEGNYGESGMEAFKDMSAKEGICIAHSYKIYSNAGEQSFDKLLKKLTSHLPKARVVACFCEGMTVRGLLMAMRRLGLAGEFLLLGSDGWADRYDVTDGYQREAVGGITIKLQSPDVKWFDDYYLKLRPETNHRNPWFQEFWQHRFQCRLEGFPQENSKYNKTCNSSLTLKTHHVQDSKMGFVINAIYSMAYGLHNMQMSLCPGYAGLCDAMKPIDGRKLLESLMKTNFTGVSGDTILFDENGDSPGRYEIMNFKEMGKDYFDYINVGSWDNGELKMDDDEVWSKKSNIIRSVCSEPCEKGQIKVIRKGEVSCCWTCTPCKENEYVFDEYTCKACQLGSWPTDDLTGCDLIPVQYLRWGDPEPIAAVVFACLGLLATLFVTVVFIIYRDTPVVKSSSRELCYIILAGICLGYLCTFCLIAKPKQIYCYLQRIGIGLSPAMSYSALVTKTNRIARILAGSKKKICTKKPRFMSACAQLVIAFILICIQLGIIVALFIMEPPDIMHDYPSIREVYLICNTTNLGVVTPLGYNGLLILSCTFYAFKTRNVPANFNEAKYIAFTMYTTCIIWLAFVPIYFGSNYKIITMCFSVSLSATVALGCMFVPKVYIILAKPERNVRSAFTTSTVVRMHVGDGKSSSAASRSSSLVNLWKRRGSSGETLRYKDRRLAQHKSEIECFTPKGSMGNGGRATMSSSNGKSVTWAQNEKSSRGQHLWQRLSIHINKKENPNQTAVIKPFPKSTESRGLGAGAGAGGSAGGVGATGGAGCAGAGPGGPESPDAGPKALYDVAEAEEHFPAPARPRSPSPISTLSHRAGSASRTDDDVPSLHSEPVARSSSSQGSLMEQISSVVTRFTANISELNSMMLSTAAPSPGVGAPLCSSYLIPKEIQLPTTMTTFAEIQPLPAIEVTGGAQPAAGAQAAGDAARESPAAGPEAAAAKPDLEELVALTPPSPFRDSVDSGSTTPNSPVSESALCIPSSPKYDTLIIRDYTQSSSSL

Row | SMILES | EC50 [µM]
1 | CC1(C)CN(C(=O)c2cccc(C3CC3)n2)CCN1C(=O)c1ncn(-c2cccc(Cl)c2)n1 [Example 16] | 0.041
2 | COc1cccc(C(=O)N2CCN(C(=O)c3ncn(-c4ccccc4)n3)C(C)(C)C2)n1 [Example 109] | 0.128
3 | COc1cc(OC)cc(C(=O)N2CCN(C(=O)c3ncn(-c4cccc(Cl)c4)n3)C(C)C2)c1 (stereo not drawn) [Example 280] | 0.476
4 | Cn1nccc1-c1cccc(C(=O)N2CCN(C(=O)c3ncn(-c4cccc(Cl)c4)n3)C(C)(C)C2)n1 [Example 91] | 0.113
5 | CC(C)COc1cccc(C(=O)N2CCN(C(=O)c3ncn(-c4cccc(Cl)c4)n3)C(C)C2)c1 (stereo not drawn) [Example 282] | 0.597
6 | CC(C)c1cccc(C(=O)N2CCN(C(=O)c3nnn(-c4ccccc4)n3)C(C)(C)C2)c1 [Example 167] | 0.015
7 | CC1(C)CN(C(=O)c2cccc(C(F)(F)F)c2)CCN1C(=O)c1ncn(-c2ccccc2)n1 [Example 98] | 0.032
8 | CCCc1nc2cc(C(=O)N3CCN(C(=O)c4ncn(-c5ccccc5)n4)C(C)(C)C3)cc(C)c2[nH]1 [Example 146] | 2.17
9 | COc1cccc(C(=O)N2CCN(C(=O)c3nnn(-c4ccccc4F)n3)C(C)(C)C2)n1 [Example 201] | 0.102
10 | Cc1cccc(-n2cnc(C(=O)N3CCN(C(=O)c4oc5ccc(F)cc5c4C)C(C)C3)n2)c1 (stereo not drawn) [Example 236] | 1.62
11 | CC1(C)CN(C(=O)c2cc3ccccc3c(OCC3CC3)n2)CCN1C(=O)c1ncn(-c2ccccc2)n1 [Example 103] | 0.049
12 | CC1(C)CN(C(=O)c2cccc(F)c2)CCN1C(=O)c1ncn(-c2ccccc2)n1 [Example 114] | 0.233
13 | Cc1c(C(=O)N2CCN(C(=O)c3ncn(-c4ccccc4)n3)CC2C)oc2ccc(F)cc12 (stereo not drawn) [Example 241] | 0.987
14 | Cc1c(C(=O)N2CCN(C(=O)c3ncn(-c4ccccc4)n3)C(C)(C)C2)oc2ccccc12 [Example 134] | 0.021
15 | CCC[C@H]1CN(C(=O)c2ncn(-c3cccc(F)c3)n2)CCN1C(=O)c1cc(Br)c(Br)o1 [Example 262] | 0.193
16 | CC1(C)CN(C(=O)c2cccc(C(F)(F)F)n2)CCN1C(=O)c1nnn(-c2ccccc2)n1 [Example 168] | 0.015
17 | COc1ccc(C(=O)N2CCN(C(=O)c3ncn(-c4cccc(Cl)c4)n3)C(C)(C)C2)s1 [Example 76] | 0.233
18 | CCc1ccc(C(=O)N2CCN(C(=O)c3ncn(-c4cccc(Cl)c4)n3)C(C)(C)C2)o1 [Example 60] | 0.069
19 | COc1cccc(C(=O)N2CCN(C(=O)c3nnn(-c4cccc(Cl)c4)n3)C(C)(C)C2)n1 [Example 199] | 0.069
20 | CC1CN(C(=O)c2cc(Cl)c3c(c2)OCCO3)CCN1C(=O)c1ncn(-c2cccc(Cl)c2)n1 (stereo not drawn) [Example 283] | 0.233
21 | CC1(C)CN(C(=O)c2cccc(C#N)n2)CCN1C(=O)c1ncn(-c2cccc(Cl)c2)n1 [Example 33] | 0.203
22 | CC1(C)CN(C(=O)c2cc(Cl)c3c(c2)OCCO3)CCN1C(=O)c1nnn(-c2cccc(Cl)c2)n1 [Example 171, [4-(8-Chloro-2,3-dihydro-benzo[1,4]dioxine-6-carbonyl)-2,2-dimethyl-piperazin-1-yl]-[2-(3-chloro-phenyl)-2H-tetrazol-5-yl]-methanone] | 0.056
23 | CC1(C)CN(C(=O)c2cc(Cl)ccc2F)CCN1C(=O)c1ncn(-c2ccccc2)n1 [Example 155] | 0.134
24 | COc1cccc(C(=O)N2CCN(C(=O)c3ncn(-c4cccc(C)c4)n3)C(C)(C)C2)n1 [Example 7, [4-(6-Methoxy-pyridine-2-carbonyl)-2,2-dimethyl-piperazin-1-yl]-[1-m-tolyl-1H-[1,2,4]triazol-3yl]-methanone] | 0.05
25 | COc1nc(C(=O)N2CCN(C(=O)c3ncn(-c4cccc(Cl)c4)n3)C(C)(C)C2)cc2ccccc12 [Example 42] | 0.088
26 | CC1(C)CN(C(=O)c2cccc(-c3ccncc3)c2)CCN1C(=O)c1ncn(-c2cccc(Cl)c2)n1 [Example 30] | 0.115

Row | SMILES | EC50 [µM]
27 | CC1(C)CN(C(=O)c2cccc(C3CCOCC3)n2)CCN1C(=O)c1ncn(-c2cccc(Cl)c2)n1 [Example 176, [1-(3-Chloro-phenyl)-1H-[1,2,4]-triazol-3-yl]-{2,2-dimethyl-4-[6-(tetrahydro-pyran-4-yl)-pyridine-2-carbonyl]-piperazin-1-yl}-methanone] | 0.366
28 | CC1(C)CN(C(=O)c2nccc(C(F)(F)F)n2)CCN1C(=O)c1ncn(-c2ccccc2)n1 [Example 147] | 0.613
29 | Cc1cccc(-n2cnc(C(=O)N3CCN(C(=O)c4cc(Br)c(Br)o4)[C@@H](C)C3)n2)c1 [Example 255, (S)-[4-(4,5-Dibromo-furan-2-carbonyl)-3-methyl-piperazin-1-yl]-(1-m-tolyl-1H-[1,2,4]triazol-3-yl)-methanone] | 0.152
30 | CC1(C)CN(C(=O)c2cccc(-c3cccc(C#N)c3)c2)CCN1C(=O)c1ncn(-c2cccc(Cl)c2)n1 [Example 55] | 0.064
31 | CC1(C)CN(C(=O)c2cccc(S(C)(=O)=O)c2)CCN1C(=O)c1ncn(-c2ccccc2)n1 [Example 131] | 1.87
32 | CCOc1cccc(C(=O)N2CCN(C(=O)c3ncn(-c4cccc(Cl)c4)n3)C(C)(C)C2)n1 [Example 62] | 0.869
33 | CC1(C)CN(C(=O)c2cccc(Cl)c2)CCN1C(=O)c1nnn(-c2cccc(Cl)c2)n1 [Example 191] | 0.064
34 | Cc1cccc(-n2nnc(C(=O)N3CCN(C(=O)c4cccc(Cl)c4)CC3(C)C)n2)c1 [Example 189] | 0.036
35 | CC1(C)CN(C(=O)c2cccc(C3CCC3)c2)CCN1C(=O)c1ncn(-c2ccccc2)n1 [Example 151] | 0.016
36 | CC1CN(C(=O)c2cn(C)c3ccccc23)CCN1C(=O)c1ncn(-c2cccc(Cl)c2)n1 (stereo not drawn) [Example 276] | 0.264
37 | CC1(C)CN(C(=O)c2cccc(C3CC3)n2)CCN1C(=O)c1ncn(-c2cccc(F)c2)n1 [Example 184] | 0.033
38 | Cc1cccc(-n2cnc(C(=O)N3CCN(C(=O)c4cc(Br)c(Br)o4)CC3(C)C)n2)c1 [Example 8] | 0.053
39 | Cc1c(C(=O)N2CCN(C(=O)c3ncn(-c4ccccc4)n3)C(C)(C)C2)n(C)c2ccccc12 [Example 110] | 0.142
40 | Cc1c(C(=O)N2CCN(C(=O)c3ncn(-c4ccccc4)n3)C(C)C2)oc2ccc(F)cc12 (stereo not drawn) [Example 294] | 1.08
41 | COc1ccc2c(C)c(C(=O)N3CCN(C(=O)c4ncn(-c5cccc(Cl)c5)n4)C(C)(C)C3)oc2c1 [Example 47] | 0.184
42 | CC1(C)CN(C(=O)c2cc(Cl)c3c(c2)OCCO3)CCN1C(=O)c1nnn(-c2ccccc2)n1 [Example 164, [4-(8-Chloro-2,3-dihydro-benzol-[1,4]dioxine-6-carbonyl)-2,2-dimethyl-piperazin-1-yl]-(2-phenyl-2H-tetrazol-5-yl)-methanone] | 0.019
43 | CC1(C)CN(C(=O)c2cccc(Cl)c2)CCN1C(=O)c1ncn(-c2cc(F)ccc2F)n1 [Example 195] | 1
44 | CC1(C)CN(C(=O)c2cccc(C(F)(F)F)n2)CCN1C(=O)c1ncn(-c2ccccc2)n1 [Example 101] | 0.052
45 | CCC[C@H]1CN(C(=O)c2ncn(-c3cccc(F)c3)n2)CCN1C(=O)c1cccc(OC)n1 [Example 261, (S)-{4-[1-(3-Fluoro-phenyl)-1H-[1,2,4]triazole-3-carbonyl]-2-propyl-piperazin-1-yl}-(6-methoxy-pyridin-2-yl)-methanone] | 0.168
46 | Cc1cc(-n2cnc(C(=O)N3CCN(C(=O)c4c(C)oc5ccccc45)CC3(C)C)n2)ccc1F [Example 163] | 1.51
47 | COc1cccc(C(=O)N2CCN(C(=O)c3nnn(-c4cccc(F)c4)n3)C(C)(C)C2)n1 [Example 202] | 0.065
48 | Cc1ccc2oc(C(=O)N3CCN(C(=O)c4ncn(-c5cccc(Cl)c5)n4)C(C)C3)c(C)c2c1 (stereo not drawn) [Example 281] | 1.5
49 | Cc1c(C(=O)N2CCN(C(=O)c3ncn(-c4cccc(Cl)c4)n3)C(C)(C)C2)oc2ccccc12 [Example 45] | 0.054
50 | CC1(C)CN(C(=O)c2ccccc2)CCN1C(=O)c1ncn(-c2ccccc2)n1 [Example 112] | 0.77
51 | CC1CN(C(=O)c2cccc3c2OCO3)CCN1C(=O)c1ncn(-c2cccc(Cl)c2)n1 (stereo not drawn) [Example 286] | 1.33
